Source: ChEMBL document CHEMBL6121046, “Discovery of Novel Hydrazide-Based HDAC3 Inhibitors as Epigenetic Immunomodulators for Cancer Immunotherapy” (J Med Chem, 2025)

What was measured:
MC-38 = assay: Induction of mitochondrial membrane damage in mouse MC38 cells assessed as decrease in JC-1 aggregation by measuring red fluorescence at 1 uM measured after 48 hrs (reference value: 96.70%); assay type: functional; set-up: scale not given: the % may be the effect or the level left
[1] = Clearance in Sprague-Dawley rat at 20 mg/kg, iv measured upto 12 hrs by LC-MS/MS analysis; assay type: ADME, organism-based; conditions: in vivo
[2] = AUC (0 to infinity) in Sprague-Dawley rat at 20 mg/kg, po measured upto 12 hrs by LC-MS/MS analysis; assay type: ADME, organism-based; conditions: in vivo
[3] = Tmax in Sprague-Dawley rat at 20 mg/kg, po measured upto 12 hrs by LC-MS/MS analysis; assay type: ADME, organism-based; conditions: in vivo

Compound `CCCNNC(=O)c1ccc(CNC(=O)c2cnc(-c3ccc4occc4c3)[nH]2)cc1` has an Activity (MC-38) of 93.57%, a CL [1] of 27.8 mL/min/kg and an AUC [2] of 1429.8 ng·h/mL. It also gave a Tmax [3] of 52.8 min.
